The numbers were not newly measured in article PMC7751758, “Repurposing Sigma-1 Receptor Ligands for COVID-19 Therapy?” (Frontiers in Pharmacology, 2020), which cites them from elsewhere.

Molecules are shown by their SMILES.

This data set deals with SARS-CoV. The settings on record: mouse, in vivo.

Take `CN(C)CCCN1c2ccccc2Sc2ccc(Cl)cc21` [Chlorpromazine]: the clinical disease result is reported as “did protect mice from clinical disease” and the “virus replication in lungs” value is given as “did not inhibit virus replication in lungs”.
Regarding `CCN(CC)CCCC(C)Nc1ccnc2cc(Cl)ccc12` (stereo not shown) [Chloroquine], the clinical disease result is on record as “did protect mice from clinical disease” and the “virus replication in lungs” value is “did not inhibit virus replication in lungs”.
